The test system of one assay is A375. Nature of the assay: Compounds cellular killing in A375. It is filed as cell-based, human. The following applies: for EC50 / Emax / Emax (%): A375, 6 days, Cell Titer-Glo; for potency compared with compound 1-A and 1-C: Table 18, A375 and Calu-6. How it is done: (§1) Seeding cells A375 (1E3/well) or Calu-6 (2E3/well) into 96-well plate (Greiner: 655090), 100 ul/well. Incubation at 37° C., 5% CO2, overnight.
(§2) Adding the fresh growth-medium containing the varying concentrations of compounds, 50 ul/well.
(§3) Incubation at 37° C., 5% CO2, 6 days.
(§4) The cell viability detected by Cell Titer-Glo (Promega, G7573). Add 70 µL/well of CellTiter-Glo® Reagent in each well.
(§5) Allow the plates to incubate at room temperature for 10 minutes to stabilize luminescent signal.
(§6) Analyze with Microplate Reader.
(§7) Seeding cells A375 ([…] or Calu-6 (2E3/well) into 96-well plate (Greiner: 655090), 100 ul/well. Incubation at 37° C., […], overnight.
A general note: In ATP-based viability assays light output follows the ATP content of the culture.

The next assay has as its system Calu-6. Nature of the assay: Compounds cellular killing in Calu-6. Particulars: Calu-6, 6 days, Cell Titer-Glo. It is filed as cell-based, human. On the procedure: as §1, §2, §3, §4, §5, §6, §7

Molecules are shown by their SMILES. Where a name gives a salt, the structure may show the parent alone.

As to `CC[C@@]1(O)C(=O)OCc2c1cc1n(c2=O)Cc2c-1nc1cc(F)c(C)c3c1c2[C@@H](NC(=O)C1CCCC1O)CC3` (single isomer, unassigned) [Example 2-9], the figures for the concentration giving a half-maximal response (EC50) in the assay with A375 and in the assay on Calu-6 were 1.9 nM and 0.7 nM, respectively. The Emax – broadly, the size of the effect at its maximum, as opposed to the concentration needed – worked out at 100% in the assay on A375 (Homo sapiens, A-375, […]) and 98.6% in the assay on Calu-6 (Homo sapiens, Calu-6, […]).
As to `CC[C@@]1(O)C(=O)OCc2c1cc1n(c2=O)Cc2c-1nc1cc(F)c(C)c3c1c2[C@@H](NC(=O)C1CCCC1O)CC3` (single isomer, unassigned) [Example 2-10], the figures for the concentration for a half-maximal effect (EC50) in the assay with A375 and in the assay with Calu-6 were 0.8 nM and 0.2 nM, respectively. The entries for the “Emax (%)” value in the assay with A375 and with Calu-6 were 99.9% and 98.9%, respectively.
With `CC[C@@]1(O)C(=O)OCc2c1cc1n(c2=O)Cc2c-1nc1cc(F)c(C)c3c1c2C(OCCO)CC3` (single isomer, unassigned) [Example 2-45], the EC50 (as a rule, the concentration that produces a half-maximal response) in the assay on A375 (Homo sapiens, A-375) amounted to 1.3 nM; in the assay on Calu-6 (Homo sapiens) it was 0.7 nM. For the same compound, the maximal response (Emax) turned out to be 100% in the assay on A375 (Homo sapiens, A-375) and 99.2% with Calu-6 (Homo sapiens, Calu-6, […]).
`CC[C@@]1(O)C(=O)OCc2c1cc1n(c2=O)Cc2c-1nc1cc(F)c(C)c3c1c2[C@@H](N1CCCC1CO)CC3` (single isomer, unassigned) [Example 2-49]: the EC50 was determined as 0.7 nM in the assay on A375 and 0.2 nM with Calu-6 (Homo sapiens, Calu-6, […]). In addition, the Emax in the assay with A375 (Homo sapiens, A-375, […]) was 99.9%; in the assay on Calu-6 (Homo sapiens, Calu-6, […]), 99.1%.
`CC[C@@]1(O)C(=O)OCc2c1cc1n(c2=O)Cc2c-1nc1cc(F)c(C)c3c1c2[C@@H](N1CCCC1CO)CC3` (single isomer, unassigned) [Example 2-50]: in the assay on A375, a half-maximal response (EC50) required 0.3 nM and the “Emax (%)” value worked out at 99.5%. For the same compound, in the assay with Calu-6, the “Emax (%)” value was 99.2%.
With `CC[C@@]1(O)C(=O)OCc2c1cc1n(c2=O)Cc2c-1nc1cc(F)c(C)c3c1c2C(C(=O)NCCO)CC3` (single isomer, unassigned) [Example 2-52], the 50% effective concentration (EC50) with A375 (Homo sapiens, A-375, […]) was 16.1 nM; in the assay on Calu-6 (Homo sapiens, Calu-6, […]), 6 nM. The Emax in the assay with A375 (Homo sapiens, A-375, […]) turned out to be 98.9%; in the assay on Calu-6 (Homo sapiens, Calu-6, […]), 97.3%.
On to `CC[C@@]1(O)C(=O)OCc2c1cc1n(c2=O)Cc2c-1nc1cc(F)c(C)c3c1c2[C@@H](N1CCC1CO)CC3` (single isomer, unassigned) [Example 2-56], for which, in the assay with A375, the concentration for a half-maximal effect (EC50) stood at 0.9 nM and the “Emax (%)” value stood at 100.0%. For the same compound, in the assay with Calu-6, a half-maximal effect (EC50) was put at 0.2 nM and the “Emax (%)” value came to 99.0%.
Regarding `CC[C@@]1(O)C(=O)OCc2c1cc1n(c2=O)Cc2c-1nc1cc(F)c(C)c3c1c2C(N1CCC1CO)CC3` (single isomer, unassigned) [Example 2-57], the results for the EC50 in the assay on A375 and in the assay on Calu-6 were 1.9 nM and 0.7 nM, respectively. Besides, the Emax with A375 (Homo sapiens, A-375, […]) is 100%; in the assay with Calu-6 (Homo sapiens, Calu-6, […]), 99.3%.
For `CC[C@@]1(O)C(=O)OCc2c1cc1n(c2=O)Cc2c-1nc1cc3c(c4c1c2C(CCCO)CC4)OCO3` (single isomer, unassigned) [Example 2-59], the EC50 worked out at 0.8 nM in the assay with A375 (Homo sapiens, A-375) and 0.2 nM in the assay on Calu-6 (Homo sapiens). Moreover, the Emax in the assay with A375 (Homo sapiens, A-375) was found to be 100%; with Calu-6 (Homo sapiens, Calu-6, […]) it was 98.4%. In addition, the “potency compared with compound 1-A and 1-C” value with A375 was “higher potency than compound 1-A and 1-C”.
Consider `CC[C@@]1(O)C(=O)OCc2c1cc1n(c2=O)Cc2c-1nc1cc3c(c4c1c2C(CCCO)CC4)OCO3` (single isomer, unassigned) [Example 2-60], for which, in the assay with A375, the EC50 is 0.8 nM; the “Emax (%)” value is listed as 100.0%; the “potency compared with compound 1-A and 1-C” value was “higher potency than compound 1-A and 1-C”. For the same compound, in the assay with Calu-6, the half-maximal effective concentration (EC50) stood at 0.2 nM and the “Emax (%)” value is given as 98.2%.
Turning to `CC[C@@]1(O)C(=O)OCc2c1cc1n(c2=O)Cc2c-1nc1cc(F)c(OC)c3c1c2[C@@H](N)CC3` [Example 1-1, (1S,9S)-1-amino-9-ethyl-5-fluoro-9-hydroxy-4-methoxy-1,2,3,9,12,15-hexahydro-10H,13H-benzo[de]pyrano[3′,4′:6,7]indolizino[1,2-b]quinoline-10,13-dione methanesulfonate], the EC50 with A375 (Homo sapiens, A-375, […]) came out at 2 nM; in the assay on Calu-6 (Homo sapiens, Calu-6, […]), 0.9 nM. The Emax in the assay on A375 (Homo sapiens, A-375, […]) was determined as 100%; in the assay with Calu-6 (Homo sapiens, Calu-6, […]) it was 99.6%.
For `CC[C@@]1(O)C(=O)OCc2c1cc1n(c2=O)Cc2c-1nc1cc(F)c(O)c3c1c2[C@@H](N)CC3` [Example 1-3, (1S,9S)-1-amino-9-ethyl-5-fluoro-4,9-dihydroxy-1,2,3,9,12,15-hexahydro-10H,13H-benzo[de]pyrano[3′,4′:6,7]indolizino[1,2-b]quinoline-10,13-dione methanesulfonate] the same measures were 130 nM, 38.5 nM, 98.4% and 98.8%.
The like results for `CC[C@@]1(O)C(=O)OCc2c1cc1n(c2=O)Cc2c-1nc1cc(Cl)c(C)c3c1c2[C@@H](N)CC3` [Example 1-8, (1S,9S)-1-amino-5-chloro-9-ethyl-9-hydroxy-4-methyl-1,2,3,9,12,15-hexahydro-10H,13H-benzo[de]pyrano[3′,4′:6,7]indolizino[1,2-b]quinoline-10,13-dione] were, in that order, 1.2 nM, 0.5 nM, 98.8% and 98.8%.
As to `CC[C@@]1(O)C(=O)OCc2c1cc1n(c2=O)Cc2c-1nc1cc3c(c4c1c2[C@@H](N)CC4)OCO3` [Example 1-10, (1S,10S)-1-amino-10-ethyl-10-hydroxy-1,2,3,10,13,16-hexahydro-11H,14H-benzo[de][1,3]dioxolo[4,5-g]pyrano[3′,4′:6,7]indolizino[1,2-b]quinoline-11,14-dione], the EC50 with A375 (Homo sapiens, A-375) amounted to 0.4 nM; in the assay on Calu-6 (Homo sapiens), 0.3 nM. In addition, the Emax with A375 (Homo sapiens, A-375) was 97.7%; with Calu-6 (Homo sapiens, Calu-6, […]), 97.7%.
Consider `CC[C@@]1(O)C(=O)OCc2c1cc1n(c2=O)Cc2c-1nc1ccc(F)c3c1c2[C@@H](N)CC3` [Example 1-12, (1S,9S)-1-amino-9-ethyl-4-fluoro-9-hydroxy-1,2,3,9,12,15-hexahydro-10H,13H-benzo[de]pyrano[3′,4′:6,7]indolizino[1,2-b]quinoline-10,13-dione], for which the EC50 was found to be 5.5 nM with A375 (Homo sapiens, A-375, […]) and 2.1 nM in the assay with Calu-6 (Homo sapiens, Calu-6, […]). For the same compound, the Emax with A375 (Homo sapiens, A-375, […]) amounted to 99.8%; in the assay on Calu-6 (Homo sapiens, Calu-6, […]), 99.5%.
For `CC[C@@]1(O)C(=O)OCc2c1cc1n(c2=O)Cc2c-1nc1cc(Cl)cc3c1c2[C@@H](N)CC3` [Example 1-14, (1S,9S)-1-amino-5-chloro-9-ethyl-9-hydroxy-1,2,3,9,12,15-hexahydro-10H,13H-benzo[de]pyrano[3′,4′:6,7]indolizino[1,2-b]quinoline-10,13-dione], the EC50 worked out at 2.5 nM in the assay on A375 (Homo sapiens, A-375) and 0.8 nM in the assay with Calu-6 (Homo sapiens). Also, the Emax in the assay with A375 (Homo sapiens, A-375) stood at 100%; with Calu-6 (Homo sapiens, Calu-6, […]), 98.8%.
With `CC[C@@]1(O)C(=O)OCc2c1cc1n(c2=O)Cc2c-1nc1cc3c(c4c1c2[C@@H](N)CC4)OC(F)(F)O3` [Example 1-16, (1S,10S)-1-amino-10-ethyl-5,5-difluoro-10-hydroxy-1,2,3,10,13,16-hexahydro-11H,14H-benzo[de][1,3]dioxolo[4,5-g]pyrano[3′,4′:6,7]indolizino[1,2-b]quinoline-11,14-dione 2,2,2-trifluoroacetate salt], in the assay on A375 (Homo sapiens, A-375, […]), the EC50 worked out at 1.6 nM and the maximal response (Emax) came to 98.5%. In the assay on Calu-6 (Homo sapiens, Calu-6, […]), this compound displayed a concentration for a half-maximal effect (EC50) of 0.6 nM and an Emax of 98.5%.

These data come from patent US20250295798A1, “LIGAND-DRUG CONJUGATE OF EXATECAN ANALOGUE, AND MEDICAL USE THEREOF” (BeiGene Switzerland GmbH, priority 2022, published 2025).
